Reference: ChEMBL document CHEMBL1138287, “Stereoselective synthesis of a novel 2-aza-7-oxabicyclo[3.3.0]octane as neurokinin-1 receptor antagonist” (Bioorg Med Chem Lett, 2007)
pIC50: −log10 of the molar value.

Experiments:
Substance-P receptor = Substance-P receptor (Homo sapiens, UniProt P25103); test: Displacement of [3H]substance P from NK1 human receptor expressed in IM9 cells; assay type: cell-based, IM-9
[1] = target: Voltage-gated L-type calcium channel (Rattus norvegicus, UniProt P22002+Q02485+P27732); test: Displacement of [3H]desmethoxyverapamil from verapamil binding site of L type calcium channel in rat heart
Cavia porcellus [2] = organism: Cavia porcellus; test: Antagonist activity in guinea pig ureter assessed as inhibition of capsaicin-induced plasma extravasation; assay type: functional
Cavia porcellus [3] = test: Antagonist activity in guinea pig ureter assessed as inhibition of capsaicin-induced plasma extravasation at 1 mg/kg, po; assay type: functional
Cavia porcellus [4] = test: Antagonist activity in guinea pig ureter assessed as inhibition of capsaicin-induced plasma extravasation at 10 mg/kg, po; assay type: functional

Substance-P receptor, sequence (P25103 whole entry): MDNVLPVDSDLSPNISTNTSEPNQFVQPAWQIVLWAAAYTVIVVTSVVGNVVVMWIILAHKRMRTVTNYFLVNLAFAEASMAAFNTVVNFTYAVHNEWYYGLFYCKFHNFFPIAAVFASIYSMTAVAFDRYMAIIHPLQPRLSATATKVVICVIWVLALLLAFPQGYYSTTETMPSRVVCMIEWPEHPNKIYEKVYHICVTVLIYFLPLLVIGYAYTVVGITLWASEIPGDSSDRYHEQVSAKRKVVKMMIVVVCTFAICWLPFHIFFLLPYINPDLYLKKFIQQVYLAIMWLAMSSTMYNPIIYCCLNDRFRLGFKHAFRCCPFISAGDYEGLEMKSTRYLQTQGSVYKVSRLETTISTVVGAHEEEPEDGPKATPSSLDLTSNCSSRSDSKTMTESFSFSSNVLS

Row | pIC50 (Substance-P receptor) | IC50 [1] [nM] | Compound | ED50 (Cavia porcellus [2]) [mg/kg] | inhibition in vivo at 1 mg/kg (Cavia porcellus [3]) [%] | inhibition in vivo at 10 mg/kg (Cavia porcellus [4]) [%]
1 | 9.66 | > 1000 | COc1ccc(OC(F)(F)F)cc1CN[C@H]1[C@@H]2COC[C@@H]2N[C@H]1c1ccccc1 (racemic) | 1 | 10 | 94
2 | 8.47 | > 1000 | COc1ccccc1CN[C@H]1[C@@H]2CCC[C@@H]2N[C@H]1c1ccccc1 (racemic) | – | – | –
